In PubChem BioAssay AID256 (DTP/NCI, 2004):
“And” between values parts separate entries of the source, which are not always exact repeats. Identical values can stand only once. Inconclusive results and toxic doses are left out.

Tested on: CD2F1 mice, L1210 leukemia ip, survival T/C
Experiment: NCI In Vivo Anticancer Drug Screen. Data for tumor model L1210 Leukemia (intraperitoneal) in CD2F1 (CDF1) mice
Details: higher = longer survival
Method in brief: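 Activity against a transplanted murine tumor was judged by comparing the compound group with a vehicle group. The outcome in the treated animals was divided by that in the controls.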

[1] = endpoint: mean survival time, dose: 50.0 mg/kg/injection, schedule: Q01DX009 (ip), vehicle: saline with Tween-80
[2] = endpoint: mean survival time, dose: 100.0 mg/kg/injection, schedule: Q01DX009 (ip), vehicle: saline with Tween-80
[3] = endpoint: mean survival time, dose: 200.0 mg/kg/injection, schedule: Q01DX009 (ip), vehicle: saline with Tween-80
[4] = endpoint: mean survival time, dose: 50.0 mg/kg/injection, schedule: Q01DX009 (ip), vehicle: Klucel (hydroxypropylcellulose) (HPC)
[5] = endpoint: mean survival time, dose: 100.0 mg/kg/injection, schedule: Q01DX009 (ip), vehicle: Klucel (hydroxypropylcellulose) (HPC)
[6] = endpoint: mean survival time, dose: 25.0 mg/kg/injection, schedule: Q04DX002 (ip), vehicle: saline with Tween-80
[7] = endpoint: mean survival time, dose: 50.0 mg/kg/injection, schedule: Q04DX002 (ip), vehicle: saline with Tween-80
[8] = endpoint: mean survival time, dose: 100.0 mg/kg/injection, schedule: Q04DX002 (ip), vehicle: saline with Tween-80
[9] = endpoint: mean survival time, dose: 200.0 mg/kg/injection, schedule: Q04DX002 (ip), vehicle: saline with Tween-80
[10] = endpoint: mean survival time, dose: 100.0 mg/kg/injection, schedule: Q04DX003 (ip), vehicle: saline
[11] = endpoint: mean survival time, dose: 200.0 mg/kg/injection, schedule: Q04DX003 (ip), vehicle: saline
[12] = endpoint: mean survival time, dose: 400.0 mg/kg/injection, schedule: Q01DX009 (ip), vehicle: saline with Tween-80
[13] = endpoint: mean survival time, dose: 100.0 mg/kg/injection, schedule: Q01DX001 (ip), vehicle: saline with Tween-80
[14] = endpoint: mean survival time, dose: 200.0 mg/kg/injection, schedule: Q01DX001 (ip), vehicle: saline with Tween-80
[15] = endpoint: mean survival time, dose: 400.0 mg/kg/injection, schedule: Q01DX001 (ip), vehicle: saline with Tween-80

For `Cc1ccc(NC(=O)Nc2ccc(S(N)(=O)=O)cc2)cc1C`, the T/C [1] was 96 % of control, the T/C [2] was 87 % of control and the T/C [3] was 87 % of control.

`O=C(Nc1ccc(N=C=S)cc1Cl)c1cc(Cl)cc(Cl)c1O` was tested, and the T/C (endpoint: mean survival time, dose: 6.25 mg/kg/injection, schedule: Q01DX009 (ip), vehicle: Klucel (hydroxypropylcellulose) (HPC)) was 91 % of control and 104 % of control, the T/C (endpoint: mean survival time, dose: 12.5 mg/kg/injection, schedule: Q01DX009 (ip), vehicle: Klucel (hydroxypropylcellulose) (HPC)) was 97 % of control and the T/C (endpoint: mean survival time, dose: 25.0 mg/kg/injection, schedule: Q01DX009 (ip), vehicle: Klucel (hydroxypropylcellulose) (HPC)) was 96 % of control and 109 % of control. The T/C [4] was 113 % of control and 103 % of control and the T/C [5] was 97 % of control.

With `COc1cc(OC)c(NC(=O)Oc2ccc(NC(C)=O)cc2)cc1Cl` the T/C [1] was 88 % of control and the T/C [2] was 96 % of control.

For `CC(CN=Cc1ccccc1O)N=Cc1ccccc1O.[Cu]` (stereo not given), the T/C [6] was 96 % of control, the T/C [7] was 103 % of control and the T/C [8] was 100 % of control. The T/C [9] was 103 % of control.

With `COc1ccc(CC(=O)C(C)C(O)(C(F)(F)F)C(F)(F)F)cc1OC` (stereo not given) the T/C (endpoint: mean survival time, dose: 100.0 mg/kg/injection, schedule: Q04DX003 (ip), vehicle: saline with Tween-80) was 108 % of control, the T/C (endpoint: mean survival time, dose: 200.0 mg/kg/injection, schedule: Q04DX003 (ip), vehicle: saline with Tween-80) was 102 % of control and the T/C (endpoint: mean survival time, dose: 400.0 mg/kg/injection, schedule: Q04DX003 (ip), vehicle: saline with Tween-80) was 103 % of control.

`COc1ccc(NC(=O)Nc2cccc(O)c2)c(Cl)c1` was tested, and the T/C [4] was 95 % of control, the T/C [5] was 98 % of control and the T/C (endpoint: mean survival time, dose: 100.0 mg/kg/injection, schedule: Q04DX003 (ip), vehicle: Klucel (hydroxypropylcellulose) (HPC)) was 102 % of control. For the same molecule, the T/C (endpoint: mean survival time, dose: 200.0 mg/kg/injection, schedule: Q01DX009 (ip), vehicle: Klucel (hydroxypropylcellulose) (HPC)) was 95 % of control, the T/C (endpoint: mean survival time, dose: 200.0 mg/kg/injection, schedule: Q04DX003 (ip), vehicle: Klucel (hydroxypropylcellulose) (HPC)) was 112 % of control and the T/C (endpoint: mean survival time, dose: 400.0 mg/kg/injection, schedule: Q04DX003 (ip), vehicle: Klucel (hydroxypropylcellulose) (HPC)) was 104 % of control.

With `O=C([O][Hg][C](F)(F)F)C(F)(F)F` the T/C (endpoint: mean survival time, dose: 6.25 mg/kg/injection, schedule: Q04DX003 (ip), vehicle: saline) was 98 % of control.

`ON=C1c2cc(Br)ccc2-c2ccc(Br)cc21` was tested, and the T/C (endpoint: mean survival time, dose: 50.0 mg/kg/injection, schedule: Q01DX001 (ip), vehicle: carboxymethylcellulose (CMC)) was 104 % of control, the T/C (endpoint: mean survival time, dose: 100.0 mg/kg/injection, schedule: Q01DX001 (ip), vehicle: carboxymethylcellulose (CMC)) was 102 % of control and the T/C (endpoint: mean survival time, dose: 200.0 mg/kg/injection, schedule: Q01DX001 (ip), vehicle: carboxymethylcellulose (CMC)) was 98 % of control. The T/C (endpoint: mean survival time, dose: 400.0 mg/kg/injection, schedule: Q01DX001 (ip), vehicle: carboxymethylcellulose (CMC)) was 102 % of control.

For `CC(=O)C(CN(C)C)c1ccccc1` (stereo not given), the T/C [10] was 95 % of control and the T/C [11] was 107 % of control.

`O=C1OC(=O)C2C3CC(C(Br)C3Br)C12` (stereo not given) was tested, and the T/C (endpoint: mean survival time, dose: 100.0 mg/kg/injection, schedule: Q01DX001 (ip), vehicle: saline) was 97 % of control, the T/C [2] was 106 % of control and the T/C (endpoint: mean survival time, dose: 200.0 mg/kg/injection, schedule: Q01DX001 (ip), vehicle: saline) was 98 % of control. The T/C [3] was 104 % of control, the T/C (endpoint: mean survival time, dose: 400.0 mg/kg/injection, schedule: Q01DX001 (ip), vehicle: saline) was 97 % of control and the T/C [12] was 101 % of control.

In the case of `CC(C)(C)NC(=O)Nc1ccc(Cl)c(Cl)c1`, the T/C [13] is reported as 93 % of control, the T/C [14] is reported as 88 % of control and the T/C [15] is reported as 93 % of control.

`C/C=C(\Cl)C1=CC(=O)C23CC2C2(C)COC1(O)C3(O)O2` (stereo not given) was tested, and the T/C (endpoint: mean survival time, dose: 1.5 mg/kg/injection, schedule: Q01DX009 (ip), vehicle: saline with Tween-80) was 93 % of control, the T/C (endpoint: mean survival time, dose: 3.0 mg/kg/injection, schedule: Q01DX009 (ip), vehicle: saline with Tween-80) was 93 % of control and the T/C (endpoint: mean survival time, dose: 6.0 mg/kg/injection, schedule: Q01DX009 (ip), vehicle: saline with Tween-80) was 110 % of control.

For `CC1(C)N=C(N)N=C(N)N1c1ccc(CCC(=O)Nc2ccc(S(=O)(=O)F)cc2)c(Cl)c1`, the T/C (endpoint: mean survival time, dose: 6.25 mg/kg/injection, schedule: Q01DX009 (ip), vehicle: saline) was 104 % of control, the T/C (endpoint: mean survival time, dose: 6.25 mg/kg/injection, schedule: Q01DX009 (ip), vehicle: water) was 112 % of control and the T/C (endpoint: mean survival time, dose: 12.5 mg/kg/injection, schedule: Q01DX009 (ip), vehicle: saline) was 120 % of control. The T/C (endpoint: mean survival time, dose: 12.5 mg/kg/injection, schedule: Q01DX009 (ip), vehicle: water) was 112 % of control, the T/C (endpoint: mean survival time, dose: 25.0 mg/kg/injection, schedule: Q01DX009 (ip), vehicle: water) was 119 % of control and the T/C (endpoint: mean survival time, dose: 50.0 mg/kg/injection, schedule: Q01DX009 (ip), vehicle: saline) was 120 % of control.

In the case of `CCN1/C(=C\c2ccc3cc(OC)ccc3[n+]2CC)[Se]c2ccc(OC)cc21`, the T/C (endpoint: mean survival time, dose: 9.5 mg/kg/injection, schedule: Q01DX001 (ip), vehicle: other) is reported as 86 % of control.

With `CCOc1ccc(-n2c(O)c(N=Nc3ccccc3OC)c(=O)n(-c3ccc(OC)cc3)c2=S)cc1` the T/C [13] was 101 % of control, the T/C [14] was 95 % of control and the T/C [15] was 94 % of control.

`COc1cccc2c1C(=O)c1c(O)c3c(c(O)c1C2=O)C[C@@](O)(C(=O)COC(=O)c1cccnc1)C[C@@H]3OC1CC(N)C(O)C(C)O1` (stereo not given in full) was tested, and the T/C (endpoint: mean survival time, dose: 0.25 mg/kg/injection, schedule: Q01DX009 (ip), vehicle: water) was 104 % of control, the T/C (endpoint: mean survival time, dose: 0.4 mg/kg/injection, schedule: Q01DX009 (ip), vehicle: saline with Tween-80) was 120 % of control and the T/C (endpoint: mean survival time, dose: 0.5 mg/kg/injection, schedule: Q01DX009 (ip), vehicle: water) was 109 % of control. For the same molecule, the T/C (endpoint: mean survival time, dose: 1.0 mg/kg/injection, schedule: Q01DX009 (ip), vehicle: water) was 122 % of control, the T/C (endpoint: mean survival time, dose: 1.5 mg/kg/injection, schedule: Q01DX009 (ip), vehicle: saline) was 168 % of control and the T/C (endpoint: mean survival time, dose: 2.0 mg/kg/injection, schedule: Q01DX009 (ip), vehicle: water) was 120 % of control. The T/C (endpoint: mean survival time, dose: 4.0 mg/kg/injection, schedule: Q01DX009 (ip), vehicle: water) was 108 % of control.

In the case of `O=C1[C@H]2CCC[C@H]2[C@H]2CCC[C@@H]12`, the T/C (endpoint: median survival time, dose: 6.25 mg/kg/injection, schedule: Q01DX009 (ip), vehicle: saline with Tween-80) is reported as 98 % of control, the T/C (endpoint: median survival time, dose: 12.5 mg/kg/injection, schedule: Q01DX009 (ip), vehicle: saline with Tween-80) is reported as 106 % of control and the T/C (endpoint: median survival time, dose: 25.0 mg/kg/injection, schedule: Q01DX009 (ip), vehicle: saline with Tween-80) is reported as 98 % of control. The T/C (endpoint: median survival time, dose: 50.0 mg/kg/injection, schedule: Q01DX009 (ip), vehicle: saline with Tween-80) was 101 % of control, the T/C (endpoint: median survival time, dose: 100.0 mg/kg/injection, schedule: Q01DX009 (ip), vehicle: saline with Tween-80) was 106 % of control and the T/C (endpoint: median survival time, dose: 200.0 mg/kg/injection, schedule: Q01DX009 (ip), vehicle: saline with Tween-80) was 97 % of control.

With `N#CC(CCN1CCCCC1)(c1ccccc1)c1ccccc1` the T/C [10] was 97 % of control, the T/C [11] was 102 % of control and the T/C (endpoint: mean survival time, dose: 400.0 mg/kg/injection, schedule: Q04DX003 (ip), vehicle: saline) was 97 % of control.

`CS(=O)(=O)OCCN(CCOS(C)(=O)=O)c1cccc([N+](=O)[O-])c1` was tested, and the T/C (endpoint: mean survival time, dose: 8.0 mg/kg/injection, schedule: Q01DX001 (ip), vehicle: saline) was 96 % of control, the T/C (endpoint: mean survival time, dose: 10.0 mg/kg/injection, schedule: Q01DX010 (ip), vehicle: saline) was 113 % of control and the T/C (endpoint: mean survival time, dose: 16.0 mg/kg/injection, schedule: Q01DX001 (ip), vehicle: saline) was 103 % of control. For the same molecule, the T/C (endpoint: mean survival time, dose: 32.0 mg/kg/injection, schedule: Q01DX001 (ip), vehicle: saline) was 110 % of control, the T/C (endpoint: mean survival time, dose: 64.0 mg/kg/injection, schedule: Q01DX001 (ip), vehicle: saline) was 114 % of control and 108 % of control and the T/C (endpoint: mean survival time, dose: 128.0 mg/kg/injection, schedule: Q01DX001 (ip), vehicle: saline) was 118 % of control. The T/C (endpoint: mean survival time, dose: 256.0 mg/kg/injection, schedule: Q01DX001 (ip), vehicle: saline) was 119 % of control and the T/C (endpoint: mean survival time, dose: 300.0 mg/kg/injection, schedule: Q01DX010 (ip), vehicle: saline) was 97 % of control.

In the case of `CCOC(=O)NNC(=O)Nc1ccccc1F`, the T/C [2] is reported as 104 % of control, the T/C [3] is reported as 88 % of control and the T/C [12] is reported as 94 % of control.

`C[n+]1nc(-c2ccccc2)oc1-c1ccccc1` was tested, and the T/C [6] was 100 % of control, the T/C [7] was 100 % of control and the T/C [8] was 108 % of control. The T/C [9] was 106 % of control.

In the case of `c1ccc2c[n+](CCc3c[nH]c4ccccc34)ccc2c1`, the T/C (endpoint: mean survival time, dose: 25.0 mg/kg/injection, schedule: Q04DX002 (ip), vehicle: other) is reported as 100 % of control and the T/C (endpoint: mean survival time, dose: 50.0 mg/kg/injection, schedule: Q04DX002 (ip), vehicle: other) is reported as 104 % of control.
